{
  "source": "paper PMC13193486",
  "about": "“Phycocyanobilin biosynthesis in Galdieria sulphuraria requires isomerization of phycoerythrobilin synthesized by bilin reductases” (The Febs Journal, 2026)",
  "biological_target": "T1, CmPCYA (Cyanidioschyzon merolae, UniProt M1V4R9)",
  "T1 construct": "gene CYME_CMG110C; N-terminal GST-tag, pGEX-6P-1, co-expressed with pGro7 chaperones in E. coli BL21(DE3)",
  "T1 sequence (M1V4R9 1-325)": "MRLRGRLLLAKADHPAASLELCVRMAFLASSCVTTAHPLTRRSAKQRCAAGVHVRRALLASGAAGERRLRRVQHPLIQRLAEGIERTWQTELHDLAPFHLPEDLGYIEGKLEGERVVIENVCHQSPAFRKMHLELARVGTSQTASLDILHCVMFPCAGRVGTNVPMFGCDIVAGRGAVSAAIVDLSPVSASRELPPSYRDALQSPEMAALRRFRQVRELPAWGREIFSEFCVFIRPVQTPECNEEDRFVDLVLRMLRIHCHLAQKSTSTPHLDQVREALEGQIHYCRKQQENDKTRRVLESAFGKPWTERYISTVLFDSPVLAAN",
  "assay": "anaerobic bilin reductase assay, HPLC",
  "format": "biochemical",
  "conditions": "BV as substrate; PetF, FNR, NADPH-regenerating system; 20 °C",
  "data": [
    {"smiles": "CC=C1C(=Cc2[nH]c(C=C3N=C(C=C4NC(=O)C(CC)=C4C)C(C)=C3CCC(=O)O)c(CCC(=O)O)c2C)NC(=O)C1C", "note": "(stereo not shown) [PCB]", "values": [
      {"measurement": "anaerobic bilin reductase assay, HPLC", "value": "catalyzing the reduction of BV to PCB (Fig. 7B: CmPCYA)"}
    ]}
  ]
}
